Assay results: patent publication US5994398A, “Arylsulfonamides as phospholipase A2 inhibitors” (Elan Pharmaceuticals, Inc., priority 1996, dated 1999)

Experiments:
cPLA2 = settings: Street et al. (1993); cited from earlier work
Ca^+2 -independent PLA2 = settings: Ackermann et al. (1995); cited from earlier work
[1] = tested on: Alzheimer's Disease patients; settings: selected group of five AD patients; cited from earlier work
[2] = tested on: IL-1β and TNF-α release in cultured microglial cells; test: Aβ1-40-induced cytokine (IL-1β and TNF-α) release in microglia, ELISA; type: cell-based, human; settings: 50 μM Aβ1-40, cultured microglia, vs vehicle control
Procedure: Cultures of human cortical astrocytes and microglia were prepared using a modification of the procedure described for cortical neurons. Cortical tissue from fetuses of 16 to 20 weeks of gestation was washed 3 times in Ca^2+ /Mg^2+ free Hanks balanced salt solution (CMF HBSS) and then dissociated by repeated pipetting. The solution was brought to a final volume of 80 mL CMF HBSS for approximately 10 mL of tissue. DNase (Sigma) was added to a final concentration of 0.05 mg/mL. 20 mL of the solution was passed through one 100 μm nylon cell strained (Falcon). The cells were then centrifuged for 5 minutes at 200×G in an IEC Clinical Centrifuge and resuspended in a trypsin/EDTA solution (0.05% trypsin+0.53 mM EDTA in HBSS; Gibco) and incubated for 20 minutes at 37° C. (10 mL of trypsin was added per 2-3 mL of tissue). The trypsin was then inactivated by adding (MEM/FBS): Modified Eagle's Medium (MEM) containing 1% glucose, 1 mM sodium pyruvate, 1 mM glutamine, and supplemented with 10% fetal bovine serum (JRH). After adding a final concentration of 0.05 mg/mL DNase the cells were resuspended and then pelleted by centrifugation and resuspended in MEM/FBS. […]
Cultured microglial cells were treated with 50 μM of Aβ1-40 or vehicle only (Control). The levels of IL-1β and TNF-α released into the culture medium were determined by ELISA assay (R&D Systems) according to manufacturer's instructions. […]

Molecule | inhibition of cPLA2 (cPLA2) | inhibition of Ca+2-independent PLA2 activity (Ca^+2 -independent PLA2) | effects on neuropathological progression [1] | symptomatic progression of AD [1] | stimulation of release of IL-1β and TNF-α into culture medium [2]
O=C1O/C(=C/Br)CCC1c1cccc2ccccc12 (stereo not drawn) [Bromoenol lactone] | capable of inhibiting | capable of inhibiting | – | – | –
CCCCC/C=C\C/C=C\C/C=C\C/C=C\CCCC(=O)C(F)(F)F [arachidonyl trifluoromethyl ketone] | capable of inhibiting | capable of inhibiting | – | – | –
COc1ccc2c(c1)c(CC(=O)O)c(C)n2C(=O)c1ccc(Cl)cc1 [indomethacin] | – | – | no effects on neuropathological progression were noted | allegedly useful in reducing symptomatic progression | –
CCCCCCCCCCCCCCCC(=O)C(F)(F)F [palmitoyl trifluoromethyl ketone] | capable of inhibiting | capable of inhibiting | – | – | –
Aβ1-40: Amyloid-β (Aβ) peptide 1-40, stock solutions 1 mM in sterile ddH2O | – | – | – | – | found to stimulate the release of IL-1β and TNF-α
